Reference: publication PMC5068747, “Using C. elegans Forward and Reverse Genetics to Identify New Compounds with Anthelmintic Activity” (PLoS Neglected Tropical Diseases, 2016)
pIC50: −log10 of the molar value. “Also recorded” adds a separate entry of the source. Read-outs that look alike come from different tables or passages of the source.

Tests used:
C. elegans VC2010 = assay: Manual phenotyping pilot screen of 3,584 known compounds (CCBN library); assay type: in vivo, Caenorhabditis elegans; conditions: dissecting microscope, positively confirmed drugs of CCBN library
[1] = test system: C. elegans VC2010 (wild type); assay: WormScan screen of C. elegans growth, fecundity, motility and mortality; assay type: in vivo, Caenorhabditis elegans; conditions: for pIC50: read-out: Nematode IC50
Description: All compound libraries were stored in 96-well plates, with 80 drugs per plate (columns 1 and 12 left empty). A BioGrid BG600 pinning robot (Digilab / BioRobotics) was used for compound transfer. The robot uses a 96-pin tool (0.7 mm dia.) to transfer a nominal volume of 340 nL of compound. For retesting, compounds were hand pinned from the original library plates to assay plates using a single 0.7 mm dia. pin. The assay plates were 96-well clear flat-bottom microplates containing 2% χ1666 E.coli bacteria in 0.5X Liquid Nematode Growth Media (LNGM) plus cholesterol (Bacteria were mass-grown in rich media, and harvested by centrifugation to produce a thick paste of bacterial cells that was kept frozen at -20°C. Cells were resuspended at 2% W/V in 0.5X LNGM to produce liquid worm food). Using a COPAS Biosort (Union Biometrica), two L4 to young adult stage VC2010 worms were added to each well of the plate in a final volume of 45 μL. After five days of exposure to the compounds, the plates were scanned and the data analyzed. A five day time period was chosen to be able to observe effects over all stages of the life cycle and through at least one round of replication. The initial proof-of-principle primary screen was performed manually using a dissecting microscope. Phenotypes scored included decreased motility, reduced brood size, and/or death as described previously. For high throughput screening of the Chembridge and Maybridge compound libraries we used the program WormScan, which was adapted for screening 96-well flat-bottom LNGM plates. Using WormScan it was possible to screen four 96-well plates at a time. Plates were scanned twice, at a resolution of 1200 dots per inch, 16-bit grayscale, producing a jpeg image. The light intensity produced by the scanner was sufficient to cause negative phototaxis equivalent to a physical stimulus for mortality determination. The time required to scan four 96-well plates using an Epson Perfection V700 Photo Scanner was less than ten minutes. The time to screen a single plate was less than 1.2 minutes, with less than ten seconds between scans.
WormScan was used to screen for the same phenotypes as in the manual screen (reduced brood size, reduced behavior/motility response and increased mortality). Two sequential scans for each 96-well plate were aligned to a reference region of interest (ROI). Image analysis was based on a difference image score calculated for each ROI. The difference image score (WormScan score) was normalized using a “percent of control” method to derive a normalized WormScan score. […] Wild-type growth in 1% DMSO (Fig 1A) results in a normalized WormScan score of 100. Exposure to 50 nM ivermectin gives a score of 0 (Fig 1C), and complete absence of worms gives a score of 0 (Fig 1D). For the primary screen the WormScan score was calculated using custom macro scripts written for Fiji. For secondary screening and any subsequent studies the WormScan score was calculated using a standalone Java program (See supplemental). Probit regression of mortality was calculated using Mathematica 8.0.

[2] = test system: Human embryonic kidney (HEK293) cells; assay: HEK293 viability, MTT colorimetric assay; assay type: cell-based; conditions: read-out: Mammalian IC50
Description: Potential anthelmintic compounds identified from primary screening were further tested against mammalian cells and yeast to determine whether they had deleterious effects in those organisms. Human embryonic kidney (HEK293) cells were grown in Dulbecco’s Modified Eagle’s Medium (DMEM; Sigma) containing 5% fetal bovine serum (FBS; Sigma) in 96-well plates tissue culture plates. Compounds were added 24h post-plating at 10, 30, 100, or 300 μM final concentrations. Dimethyl sulfoxide (DMSO) was used as a negative control at 0.1%. Cells were treated for 24 or 48 hours, after which time viability was assessed using a 3-(4,5-dimethylthiazol-2-yl)-2,5-diphenyltetrazolium bromide (MTT) colorimetric assay. Percent viability was determined by comparing treatment values to DMSO control values.

[3] = test system: S. cerevisiae yeast strain BY4743; assay: Yeast growth rate (OD600) dose titration; assay type: cell-based; conditions: BY4743, YPD, growth rate reduced by 50%
Description: The S. cerevisiae yeast strain BY4743 (MATa/α his3Δ1/his3Δ1 leu2Δ0/leu2Δ0 LYS2/lys2Δ0 met15Δ0/MET15 ura3Δ0/ura3Δ0) was used for all yeast experiments and was grown using yeast extract peptone dextrose (YPD) media at pH 7 [52]. BY4743 was grown overnight to initial log phase and was then grown with the compound identified in the C. elegans assay. The growth rate was quantified by continuously monitoring the optical density of the liquid yeast growth at OD600. The compound was screened in a dose-titration in YPD as described. The IC50 was the concentration required to reduce the growth rate or Average G value by 50% compared to a vehicle control (2% DMSO).

Compound: CC(=O)O[C@@]12C[C@@H](C)[C@@]3(O)[C@@H](C=C(CO)C[C@]4(O)C(=O)C(C)=C[C@@H]34)[C@@H]1C2(C)C [12-Deoxyphorbol 13-acetate]
- Worm Reaction in Drug (C. elegans VC2010): SLOW only L1/2s (& orig adults), lots unhatched eggs

Compound: CC(=O)OCC1=C[C@H]2[C@@H]3C(C)(C)[C@]3(OC(=O)Cc3ccccc3)C[C@@H](C)[C@]2(O)[C@@H]2C=C(C)C(=O)[C@@]2(O)C1 [12-Deoxyphorbol 13-phenylacetate 20-acetate]
- Worm Reaction in Drug (C. elegans VC2010): Adults DEAD, only L1s/2s, not starved

Compound: Cl.c1ccc([C@H]2CN3CCSC3=N2)cc1 [(-)-Tetramisole hydrochloride]
- Worm Reaction in Drug (C. elegans VC2010): UNC! Paralyzed, lots of worms, 1 starved, 1 not

Compound: CNC(=O)O/N=C/C(C)(C)SC [Aldicarb]
- Worm Reaction in Drug (C. elegans VC2010): UNC adults, but definitely STARVED

Compound: COc1cccc2c1cc([N+](=O)[O-])c1c(C(=O)O)cc3c(c12)OCO3 [Aristolochic acid A]
- Worm Reaction in Drug (C. elegans VC2010): SLOW, 1:only L2s, not starved, 2:1 sterile adult?

Compound: CCCCNC(=O)n1c(NC(=O)OC)nc2ccccc21 [Benomyl, reference compound]
- pIC50 ([1]; Caenorhabditis elegans, 120 h): 4.22
- pIC50 ([2]; Homo sapiens): 5.10
- pIC50 ([3]; Saccharomyces cerevisiae): 3.12

Compound: NNC(=O)CCn1c2ccc(Cl)cc2c2cc(Cl)ccc21 [CID 766260]
- pIC50 ([1]; C. elegans, 5 days exposure): 3.55
- pIC50 [2]: 4.36
- pIC50 [3]: 3.95

Compound: O=C1c2ccc(-c3nc4cc(Cl)ccc4c(=O)o3)cc2C(=O)N1c1ccccc1-c1ccccc1 [CID 2222671]
- pIC50 ([1]; C. elegans, 5 days exposure): < 3.30
- pIC50 [2]: 3.63
- pIC50 [3]: < 3.00

Compound: N#CSCCCOc1ccccc1Br [CID 2238042]
- pIC50 ([1]; C. elegans, 5 days exposure): 3.45
- pIC50 [2]: 4.17
- pIC50 [3]: 3.47

Compound: Fc1ccc(COc2ccc(-c3nnco3)cc2)cc1 [CID 2740991]
- pIC50 ([1]; C. elegans, 5 days exposure): 4.72
- pIC50 [2]: 4.08
- pIC50 [3]: < 3.00

Compound: Cc1csc2sc(C(=O)CC(=O)C(F)(F)F)c(C)c12 [CID 2743002]
- pIC50 ([1]; C. elegans, 5 days exposure): < 3.30
- pIC50 [2]: 4.27
- pIC50 [3]: 4.70

Compound: Cc1nn(S(=O)(=O)c2ccccc2)c(C)c1Oc1ccc(Cl)cc1 [CID 2745791]
- pIC50 ([1]; C. elegans, 5 days exposure): 4.00
- pIC50 [2]: 4.27
- pIC50 [3]: < 3.00

Compound: COc1ccc(OCCNC(=O)c2c(F)cccc2Cl)cc1 [CID 2747279]
- anthelmintic activity on retest of the 50 compounds most similar to CID 2747322 ([1]; C. elegans, re-pinned, two additional biological replicates): strong anthelmintic activity
- pIC50 ([1]; Caenorhabditis elegans, 120 h, C. elegans, 5 days exposure): 4.89
- pIC50 ([2]; Homo sapiens): 3.72
- pIC50 ([3]; Saccharomyces cerevisiae): < 3.00

Compound: CC[C@@]1(O)C(=O)OCc2c1cc1n(c2=O)Cc2cc3ccccc3nc2-1 [Camptothecin]
- Worm Reaction in Drug (C. elegans VC2010): SLOW - progeny paralyzed, only adults moving, not starved; also recorded: SLOW 1 well only 3 worms (dead ones, unhatched eggs present), other starved, lots of babies, 2nd gen

Compound: CC[C@@]1(O)C(=O)OCc2c1cc1n(c2=O)Cc2cc3ccccc3nc2-1 [Camptothecine (S, +)]
- Worm Reaction in Drug (C. elegans VC2010): unc-ish, few progeny, sickly gonads not developed properly ie. Adults but not eggs, etc.

Compound: CCOP(=S)(OCC)Oc1nc(Cl)c(Cl)cc1Cl [Chlorpyrifos]
- Worm Reaction in Drug (C. elegans VC2010): both DEAD!

Compound: Cl.Clc1ccc(Cn2c(CN3CCCC3)nc3ccccc32)cc1 [Clemizole Hydrochloride]
- Worm Reaction in Drug (C. elegans VC2010): mostly young ones, a few adults but look sterile, a little unc

Compound: COc1cc2c(cc1OC)[C@@H]1C(=O)c3ccc4c(c3O[C@@H]1CO2)C=CC(C)(C)O4 [Deguelin]
- Worm Reaction in Drug (C. elegans VC2010): SLOW, VERY few progeny, not starved, not very mobile

Compound: COc1cc2c(cc1OC)[C@@H]1C(=O)c3ccc4c(c3O[C@@H]1CO2)CC(C(C)C)O4 (stereo partly shown) [Dihydrorotenone]
- Worm Reaction in Drug (C. elegans VC2010): SLOW uncish only 1 gen ns

Compound: COC(=O)Nc1nc2ccc(Sc3ccccc3)cc2[nH]1 [Fenbendazole]
- Worm Reaction in Drug (C. elegans VC2010): UNC (lots of worms)

Compound: CN(C)c1ccc(C(=C2C=CC(=[N+](C)C)C=C2)c2ccc(N(C)C)cc2)cc1 [Gentian Violet]
- Worm Reaction in Drug (C. elegans VC2010): SLOW! Ns, uncish, only 1 gen past

Compound: CCCCCC(=O)O[C@]1(C(C)=O)CC[C@H]2[C@@H]3CCC4=CC(=O)CC[C@]4(C)[C@H]3CC[C@@]21C [Hydroxyprogesterone Caproate]
- Worm Reaction in Drug (C. elegans VC2010): slower, one starved one not

Compound: COC(=O)Nc1nc2ccc(SC(C)C)cc2[nH]1 [Methiazole]
- Worm Reaction in Drug (C. elegans VC2010): UNC! Lots of worms

Compound: COP(=S)(OC)Oc1ccc([N+](=O)[O-])cc1 [Methyl Parathione]
- Worm Reaction in Drug (C. elegans VC2010): SLOW, UNC, ns, 1 gen only

Compound: C=C(C)[C@@]12O[C@@]3(c4ccccc4)O[C@@H]1[C@@H]1[C@@H]4O[C@]4(CO)[C@@H](O)[C@]4(O)C(=O)C(C)=C[C@H]4[C@@]1(O3)[C@H](C)[C@H]2OC(=O)/C=C/C=C/c1ccccc1 [Mezerein]
- Worm Reaction in Drug (C. elegans VC2010): Adults DEAD, only L1s/2s, not starved

Compound: CCCCc1ccc2[nH]c(NC(=O)OC)nc2c1 [Parbendazole]
- Worm Reaction in Drug (C. elegans VC2010): UNC! Lots of worms in 1, not starved in 2

Compound: CCCC(=O)O[C@@H]1[C@@H](C)[C@@]2(O)[C@@H](C=C(CO)C[C@]3(O)C(=O)C(C)=C[C@@H]23)[C@@H]2C(C)(C)[C@]12OC(=O)CCC [Phorbol 12, 13-dibutyrate]
- Worm Reaction in Drug (C. elegans VC2010): SLOW only L1/2s (one gen. only), not starved

Compound: CC(Cc1ccccc1)NCCC(c1ccccc1)c1ccccc1 (stereo not shown) [Prenylamine Lactate]
- Worm Reaction in Drug (C. elegans VC2010): few progeny, not starved stalls at late larval?

Compound: C=C1C([C@]2(C)C(CC(=O)OC)[C@@](C)(COC(C)=O)OC(=O)C[C@@H]2OC(C)=O)[C@@H](OC=O)[C@H](OC(=O)C(OC(C)=O)C(C)CC)[C@@]2(C)[C@H](c3ccoc3)CC(=O)C12O (stereo partly shown) [Prieuranin Acetate]
- Worm Reaction in Drug (C. elegans VC2010): SLOW, barely 1 gen, ns; one well = only 1 worm

Compound: C=C1[C@@H]([C@@]2(C)[C@@H](OC(C)=O)CC(=O)O[C@](C)(COC(C)=O)[C@@H]2C(=O)OC)[C@@H](OC=O)[C@H](OC(=O)[C@H](O)[C@H](C)CC)[C@@]2(C)[C@H](c3ccoc3)CC(=O)[C@]12O [Prieurianin]
- Worm Reaction in Drug (C. elegans VC2010): SLOW! Only orig adults, one well = dead, ns

Compound: O=C1c2ccc(O)c(O)c2C(=O)c2c(O)ccc(O)c21 [Quinalizarin]
- Worm Reaction in Drug (C. elegans VC2010): SLOW, unc, ns

Compound: CCN(CC)C(=O)NC1C=C2c3cccc4[nH]cc(c34)C[C@H]2N(C)C1.O=C(O)/C=C\C(=O)O (stereo partly drawn) [R(+)-Lisuride hydrogen maleate]
- Worm Reaction in Drug (C. elegans VC2010): UNCish, starved but slow, lots of worms

Compound: C=C(C)[C@H]1Cc2c(ccc3c2O[C@@H]2COc4cc(OC)c(OC)cc4[C@@H]2C3=O)O1 [Rotenone]
- Worm Reaction in Drug (C. elegans VC2010): SLOW, only one gen., few, not starved

Compound: CC(C)[C@@]1(O)[C@@H](OC(=O)c2ccc[nH]2)[C@@]2(O)[C@@]3(C)C[C@]4(O)O[C@@]5([C@H](O)[C@@H](C)CC[C@]35O)[C@@]2(O)[C@@]14C [Ryanodine]
- Worm Reaction in Drug (C. elegans VC2010): UNC! 1: lots and starved, 2: few, not starved, less uncish

Compound: COP(=O)(OC)C(O)C(Cl)(Cl)Cl (stereo not shown) [Trichlorfon]
- Worm Reaction in Drug (C. elegans VC2010): VERY unhappy, unc-ish, a few dpy/hypercontracted animals

Compound: CC(C)(C)c1cc(/C=C(\C#N)C(N)=S)cc(C(C)(C)C)c1O [Tyrphostin AG 879]
- Worm Reaction in Drug (C. elegans VC2010): SLOW! Only on 2nd gen, ns

Compound: COc1ccccc1NC(=O)Nc1nc(-c2cccnc2)nc2ccccc12 [VUF 5574]
- Worm Reaction in Drug (C. elegans VC2010): uncish adults, starved

Compound: Avermectin B1
- Worm Reaction in Drug (C. elegans VC2010): adults DEAD
